The source made the active and inactive calls.
How the values were obtained:
HEK293 = experiment: viability loss in HEK293T cells – cell-based, ATP luminescence, cherry-pick samples, cytotoxicity control, dose response (AID 687005); assay type: functional; details: Homo sapiens;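 also: cells exposed to compound for 48 hours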
[1] = HEK293 Cytotoxicity Assay Measured in Cell-Based System Using Plate Reader - 7071-01_Inhibitor_Dose_CherryPick_Activity_Set2.; assay type: functional
[2] = HIV-1 Vif–A3G interaction blockers – biochemical, TR-FRET, GST-Vif 1-94, biotin-A3G peptide, dose response retest, primary screen (AID 1117319); assay type: functional;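 also: TR-FRET signal of purified GST-Vif binding a biotinylated A3G peptide; inhibitors lower the FRET signal by blocking Vif and A3G binding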
Galanin receptor type 3 = molecular target: T1, Galanin receptor type 3 (Homo sapiens, UniProt O60755); experiment: Fluorescence-based cell-based primary high throughput dose response assay to identify antagonists of the Galanin Receptor 3 (GalR3).; assay type: functional
T1 sequence (O60755 whole entry): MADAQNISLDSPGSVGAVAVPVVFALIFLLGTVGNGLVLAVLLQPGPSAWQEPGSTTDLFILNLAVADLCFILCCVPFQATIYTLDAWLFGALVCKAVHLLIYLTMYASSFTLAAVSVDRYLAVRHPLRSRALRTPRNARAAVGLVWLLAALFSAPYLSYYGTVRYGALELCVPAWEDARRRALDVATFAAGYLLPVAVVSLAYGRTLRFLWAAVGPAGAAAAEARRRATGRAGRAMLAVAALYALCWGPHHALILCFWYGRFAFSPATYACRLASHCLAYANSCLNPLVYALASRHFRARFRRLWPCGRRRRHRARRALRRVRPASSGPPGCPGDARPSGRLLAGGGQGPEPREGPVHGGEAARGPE

BJ [3] = experiment: BJ-TERT-LT-ST fibroblast viability loss – cell-based, RAS-independent, luminescence, dose response (AID 1935); assay type: functional; details: Homo sapiens;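 also: BJ fibroblasts immortalized with TERT plus LT and ST oncogenes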
cells = assay type: functional, cell-based; details: HEK-CNG
BJ [4] = experiment: BJ-TERT fibroblast viability loss – cell-based, RAS-independent, luminescence, dose response (AID 1933); assay type: functional; details: Homo sapiens
[5] = Trypanosoma cruzi growth suppression in host cells – NIH3T3 host cells, beta-gal luminescence, confirmation (AID 2044); assay type: functional, cell-based;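 also: intracellular parasites grown in NIH/3T3 mouse fibroblasts as host cells; luminescent beta-galactosidase reporter signal from transgenic T. cruzi replicating inside host cells; inhibitors lower the luminescence signal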
[6] = DRD fibroblast viability loss – cell-based, non-viral oncogenic, luminescence, dose response (AID 1934); assay type: functional; details: Homo sapiens
INS1 = experiment: INS-1E survival protection against cytokine death – cell-based, luminescence, retest, dose response (AID 449756); assay type: functional; details: Rattus norvegicus;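 also: cell death triggered by IL-1 beta plus TNF-alpha plus IFN-gamma mixture; protective hits raise ATP signal compared with cytokine alone wells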
[7] = NIH3T3 cell viability loss – ATP luminescence, mouse fibroblasts, counter-screen, dose response (AID 2010); assay type: functional, cell-based;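 also: cells exposed to compound for about 90 hours before reading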
BJ [8] = experiment: cells; assay type: functional, cell-based; details: Homo sapiens
Paired box protein Pax-8 = Paired box protein Pax-8 (Homo sapiens, UniProt Q06710); experiment: PAX8 transcriptional activity inhibition in RMG-I – RMG-I cells, luciferase, cherry-pick, dose response (AID 687027); assay type: functional, cell-based;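 also: luciferase reporter driven by Pax8 target thyroperoxidase promoter measured by SteadyGlo luminescence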
[9] = molecular target: T2, COUP transcription factor 2 (Homo sapiens, UniProt P24468); experiment: Luminescence-based cell-based high throughput dose response assay to identify inhibitors of COUP-TFII (NR2F2).; assay type: functional;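 also: HEK293 cells transiently cotransfected with COUP-TFII expression vector and reporter; luciferase reporter luminescence driven by COUP-TFII from the pX2-168 reporter plasmid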
T2 sequence (P24468 whole entry): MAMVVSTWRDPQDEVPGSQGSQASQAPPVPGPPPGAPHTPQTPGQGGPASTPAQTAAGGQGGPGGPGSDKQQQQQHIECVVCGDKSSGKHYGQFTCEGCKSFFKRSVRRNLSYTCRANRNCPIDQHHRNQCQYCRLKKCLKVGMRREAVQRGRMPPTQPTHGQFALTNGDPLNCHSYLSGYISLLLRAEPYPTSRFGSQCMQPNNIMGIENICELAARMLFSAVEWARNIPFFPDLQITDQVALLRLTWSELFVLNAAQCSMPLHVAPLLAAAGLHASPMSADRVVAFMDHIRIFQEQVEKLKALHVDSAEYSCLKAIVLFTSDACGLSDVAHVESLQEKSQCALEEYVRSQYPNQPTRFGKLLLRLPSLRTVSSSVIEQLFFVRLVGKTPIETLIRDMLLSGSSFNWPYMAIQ

Vero = experiment: mammalian cell viability reduction – secondary assay, cytotoxicity control for West Nile virus antiviral project, dose response (AID 1650); assay type: functional; details: Chlorocebus sabaeus
[10] = A Cell Based Secondary Assay To Explore Cytotoxicity of Compounds that Sensitize Mycobacterium Tuberculosis to Beta-Lactam Antibiotics.; assay type: functional
[11] = Counterscreen for activators of the function of SWI/SNF related, matrix associated, actin dependent regulator of chromatin, subfamily a, member 2 (SMARCA2, BRM): Luminescence-based cell-based high throughput dose response assay to identify non-selective compounds using the VP16 reporter assay.; assay type: functional
[12] = molecular target: T3, Heat shock factor protein 1 (Mus musculus, UniProt P38532); experiment: enhancement of HSF1-driven luciferase signal – cell-based, NIH3T3, luminescence, dose retest, confirmation (AID 435004); assay type: functional;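 also: stress induced by proteasome inhibitor MG132 added 30 min after compound; luciferase reporter driven by HSF1 response element in NIH3T3 cells; actives raise luminescence as potentiators of the MG132 stress response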
T3 sequence (P38532 whole entry): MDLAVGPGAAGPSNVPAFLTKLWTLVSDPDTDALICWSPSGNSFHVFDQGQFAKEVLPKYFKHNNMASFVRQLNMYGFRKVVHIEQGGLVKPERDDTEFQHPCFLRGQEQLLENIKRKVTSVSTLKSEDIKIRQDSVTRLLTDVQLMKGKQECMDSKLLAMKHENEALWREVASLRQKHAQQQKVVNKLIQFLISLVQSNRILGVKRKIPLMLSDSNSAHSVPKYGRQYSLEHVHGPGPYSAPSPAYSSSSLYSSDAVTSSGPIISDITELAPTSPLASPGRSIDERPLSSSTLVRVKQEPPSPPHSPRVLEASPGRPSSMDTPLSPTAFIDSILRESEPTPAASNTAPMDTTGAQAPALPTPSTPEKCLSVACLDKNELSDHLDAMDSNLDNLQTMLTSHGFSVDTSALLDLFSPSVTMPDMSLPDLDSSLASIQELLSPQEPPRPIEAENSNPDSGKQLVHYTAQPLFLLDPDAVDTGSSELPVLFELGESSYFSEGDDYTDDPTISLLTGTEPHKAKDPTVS

[13] = molecular target: SWI/SNF-related matrix-associated actin-dependent regulator of chromatin subfamily A member 2 (Homo sapiens, UniProt P51531); experiment: Luminescence-based cell-based high throughput dose response assay to identify activators of the function of SWI/SNF related, matrix associated, actin dependent regulator of chromatin, subfamily a, member 2 (SMARCA2, BRM).; assay type: functional
Sequence of SWI/SNF-related matrix-associated actin-dependent regulator of chromatin subfamily A member 2 (P51531 whole entry): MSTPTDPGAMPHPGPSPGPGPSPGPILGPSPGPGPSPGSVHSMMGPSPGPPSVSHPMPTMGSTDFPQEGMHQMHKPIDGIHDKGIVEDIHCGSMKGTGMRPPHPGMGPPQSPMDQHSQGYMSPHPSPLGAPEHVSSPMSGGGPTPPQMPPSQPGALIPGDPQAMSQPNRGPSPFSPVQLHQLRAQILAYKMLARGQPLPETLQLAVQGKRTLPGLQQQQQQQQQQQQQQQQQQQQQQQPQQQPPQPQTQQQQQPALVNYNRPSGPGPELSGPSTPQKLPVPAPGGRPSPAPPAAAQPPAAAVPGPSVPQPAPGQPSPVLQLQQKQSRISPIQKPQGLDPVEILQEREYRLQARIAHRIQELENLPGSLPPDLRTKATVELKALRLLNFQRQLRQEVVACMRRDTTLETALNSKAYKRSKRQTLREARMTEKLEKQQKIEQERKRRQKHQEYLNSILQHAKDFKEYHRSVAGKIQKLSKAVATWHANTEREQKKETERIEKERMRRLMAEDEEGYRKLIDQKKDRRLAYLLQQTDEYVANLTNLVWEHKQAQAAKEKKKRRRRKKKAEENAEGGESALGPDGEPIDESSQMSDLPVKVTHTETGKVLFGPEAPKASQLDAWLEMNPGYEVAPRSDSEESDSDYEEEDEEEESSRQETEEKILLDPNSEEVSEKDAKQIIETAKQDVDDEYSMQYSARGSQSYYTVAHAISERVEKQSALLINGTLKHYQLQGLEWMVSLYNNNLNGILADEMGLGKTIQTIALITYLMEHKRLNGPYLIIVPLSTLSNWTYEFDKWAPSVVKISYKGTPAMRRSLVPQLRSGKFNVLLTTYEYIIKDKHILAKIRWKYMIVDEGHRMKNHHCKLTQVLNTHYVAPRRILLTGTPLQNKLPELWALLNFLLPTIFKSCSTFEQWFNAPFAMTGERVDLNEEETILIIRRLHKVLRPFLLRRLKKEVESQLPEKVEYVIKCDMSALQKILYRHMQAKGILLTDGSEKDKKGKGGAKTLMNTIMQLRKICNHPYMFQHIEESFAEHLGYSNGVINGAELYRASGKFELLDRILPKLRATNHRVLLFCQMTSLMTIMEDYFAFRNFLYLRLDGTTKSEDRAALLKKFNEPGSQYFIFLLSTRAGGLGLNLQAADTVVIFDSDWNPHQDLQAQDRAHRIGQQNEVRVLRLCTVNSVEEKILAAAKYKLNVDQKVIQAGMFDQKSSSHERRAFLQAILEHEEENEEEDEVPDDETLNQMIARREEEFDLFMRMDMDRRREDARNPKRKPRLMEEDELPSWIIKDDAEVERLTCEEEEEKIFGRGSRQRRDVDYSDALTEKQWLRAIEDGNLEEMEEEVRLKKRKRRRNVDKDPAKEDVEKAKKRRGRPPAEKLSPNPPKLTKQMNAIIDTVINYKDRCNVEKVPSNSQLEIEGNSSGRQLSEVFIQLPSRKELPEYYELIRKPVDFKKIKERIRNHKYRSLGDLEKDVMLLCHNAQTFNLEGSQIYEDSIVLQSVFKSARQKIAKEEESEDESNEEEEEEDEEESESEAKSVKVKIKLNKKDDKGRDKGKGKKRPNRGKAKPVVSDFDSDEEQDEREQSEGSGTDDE

Sequence of Paired box protein Pax-8 (Q06710 whole entry): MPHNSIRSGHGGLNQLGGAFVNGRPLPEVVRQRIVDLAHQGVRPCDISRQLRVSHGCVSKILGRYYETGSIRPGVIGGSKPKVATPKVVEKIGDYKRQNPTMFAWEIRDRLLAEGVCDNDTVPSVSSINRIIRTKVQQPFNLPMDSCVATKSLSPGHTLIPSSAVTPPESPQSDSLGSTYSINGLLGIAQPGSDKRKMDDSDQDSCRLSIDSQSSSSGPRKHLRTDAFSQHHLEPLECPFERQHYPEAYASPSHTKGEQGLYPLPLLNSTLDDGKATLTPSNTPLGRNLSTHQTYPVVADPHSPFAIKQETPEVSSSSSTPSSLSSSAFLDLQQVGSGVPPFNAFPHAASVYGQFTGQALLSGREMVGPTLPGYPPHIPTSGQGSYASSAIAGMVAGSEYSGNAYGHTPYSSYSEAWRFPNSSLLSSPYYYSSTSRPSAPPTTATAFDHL

In the case of `C[C@@H]1CCCCO[C@H](CN(C)C(=O)Nc2ccc(F)cc2)[C@H](C)CN([C@@H](C)CO)C(=O)c2cc(NS(=O)(=O)c3ccc(Cl)cc3)ccc2O1`, the AC50 (HEK293) is reported as 21.9 µM (active) and the AC50 [1] is reported as 21.9 µM (active).
With `CCOc1ccc(NC(=O)C2CCCN(S(=O)(=O)c3c(C)n[nH]c3C)C2)cc1` (configuration not stated) the IC50 [2] was > 100 µM (active).
With `Cc1cc(C)nc(N2CCC(C(=O)O)CC2)n1` the IC50 [2] was > 100 µM (active).
In the case of `O=C(NC(Nc1nc2ccc([N+](=O)[O-])cc2s1)(C(F)(F)F)C(F)(F)F)c1cccnc1`, the IC50 (Galanin receptor type 3) is reported as > 1.11 µM (active), the EC50 (BJ [3]) is reported as 11.4 µM (active) and the EC50 (cells) is reported as > 29.9 µM (inactive). The EC50 (BJ [4]) was 8.85 µM (inconclusive), the EC50 [5] was 1.38 µM (active) and the EC50 [6] was 10.4 µM (active). The AC50 (INS1) was 2.6 µM (active), the EC50 [7] was < 6 µM (inconclusive) and the EC50 (BJ [8]) was 4.98 µM (active). The AC50 (Paired box protein Pax-8) was 1.86 µM (active) and the IC50 [9] was 8.8 µM (active).
With `O=C(C[C@@H]1CC[C@@H]2[C@H](COC[C@@H](O)CN2C(=O)Nc2ccc(Cl)cc2)O1)NC1Cc2ccccc2C1` the AC50 (HEK293) was 25.2 µM (active) and the AC50 [1] was 25.2 µM (active).
For `O=C(Nc1cccc(C(F)(F)F)c1)N1CCC(c2nc(-c3ccc(F)cc3)no2)CC1`, the CC50 (Vero) was 12.6 µM (active) and the CC50 [10] was > 40 µM (active).
For `Cc1cc(C)nc(Sc2nc(Cl)nc(N(c3ccccc3)c3ccccc3)n2)n1`, the EC50 [11] was > 91.1 µM (inactive), the EC50 [12] was > 260 µM (inactive) and the EC50 [13] was > 91.1 µM (inactive).

Source: ChEMBL document CHEMBL1201862, “PubChem BioAssay data set” (2004)
